# Source: patent US4368261A, “Method and reagent for the determination of triglycerides” (priority 1979, dated 1983)
# Columns and labels:
# Test in all cases: Stability of glycerokinase in the presence of dichlorophenol at 25° C. (Table 2)
# Format in all cases: biochemical
# [1] = biological target: glycerokinase (GK) from Bacillus stearothermophilis (Geobacillus stearothermophilus, UniProt A0ACH1EBP7)
# Description: (§1) It is known that Bacillus stearothermophilis contains a glycerokinase (see J. Appl. Bac., 38, 301-304/1975). However, it could not be deduced from this that this glycerokinase would display a good stability towards the mentioned group of activators which would permit its use together with these activators.
# [2] = biological target: T1, glycerokinase (GK) from Escherichia coli (commercially available) (Escherichia coli, UniProt P0A6F3)
# T1 construct: purchased
# Description: as §1
# [3] = system: glycerokinase (GK, E.C. 2.7.1.30) from Candida mycoderma
# Description: as §1
substance,measurement,setting,value
dichlorophenol,residual activity after 30 min.,[1]; 2 mM dichlorophenol,100%
same,residual activity after 60 min.,[1]; 2 mM dichlorophenol,100%
same,residual activity after 30 min.,[1]; 5 mM dichlorophenol,100%
same,residual activity after 60 min.,[1]; 5 mM dichlorophenol,100%
same,residual activity after 30 min.,[2]; 2 mM dichlorophenol,93%
same,residual activity after 60 min.,[2]; 2 mM dichlorophenol,87%
same,residual activity after 30 min.,[2]; 5 mM dichlorophenol,81%
same,residual activity after 60 min.,[2]; 5 mM dichlorophenol,58%
same,residual activity after 30 min.,[3]; 2 mM dichlorophenol,68%
same,residual activity after 60 min.,[3]; 2 mM dichlorophenol,56%
same,residual activity after 30 min.,[3]; 5 mM dichlorophenol,18%
same,residual activity after 60 min.,[3]; 5 mM dichlorophenol,7%
